The source of these data is EP4707284A1, “HETEROCYCLIC COMPOUND AND USE THEREOF” (Otsuka Pharmaceutical Co., Ltd., priority 2023, dated 2024).

SMILES strings stand for the structures.

The first data set is classed as physicochemical. The note with it: Tris-hydrochloric acid buffer (pH 7.5) 50 mmol/L, magnesium chloride 5 mmol/L, evaluation compound 1 µmol/L, 37°C, 60 minutes, average of duplicate. The method, then: The conversion from the evaluation compounds to brexpiprazole in a buffer (i.e., the stability of the evaluation compounds) was evaluated.
The Example 1 compound was dissolved in acetonitrile/water (1:1, v/v) to 10 mmol/L and further diluted with acetonitrile/water (1:1, v/v) to 100 µmol/L for use.
The other Example compounds and the Reference Example 5 compound to Reference Example 7 compound were each dissolved in DMSO to 10 mmol/L and further diluted with acetonitrile to 100 µmol/L for use, except for the following compounds.
The compounds of Examples 52, 95, 96, 117, and 130 (EX 52, EX 95, EX 96, EX 117, and EX 130) were dissolved in acetonitrile/water (8:2, v/v) to 10 mmol/L and further diluted with acetonitrile to 100 µmol/L for use.
The compound of Example 97 (EX 97) was dissolved in acetonitrile/water (8:2, v/v) to 10 mmol/L and further diluted with acetonitrile/water (8:2, v/v) to 100 µmol/L for use.
The compounds of Examples 15 and 116 (EX 15 and EX 116) were dissolved in DMSO to 1 mmol/L and further diluted with acetonitrile to 100 µmol/L for use.
These evaluation compound solutions were prepared at the time of use.
The reaction was conducted by preparing each reaction solution such that the final concentration of each component was as follows. The test was conducted in duplicate.
For the compounds of Examples 1 to 8, 10 to 19, 26 to 27, 37, 50, 87 to 89, 91, 116, 121, 123, 150, and 151 (EX 1 to EX 8, EX 10 to EX 19, EX 26 to EX 27, EX 37, EX 50, EX 87 to EX 89, EX 91, EX 116, EX 121, EX 123, EX 150, and EX 151), and the compounds of Reference Examples 5 to 7 (REX 5 to REX 7), the reaction solution without the evaluation compound (198 µl) was pre-incubated at 37°C for 3 minutes, and then each of the evaluation compound solutions (2 µl) was added and stirred; thereafter, the reaction was started at 37°C. At 0 minutes or 60 minutes after the start of the reaction, the reaction was stopped by adding and stirring a reaction stop solution (1000 µl) composed of acetonitrile/isopropanol (4:1, v/v) containing internal standard substances. However, the 0-minute reaction sample (198 µl) was prepared by adding the evaluation compound (2 µl) after adding the reaction stop solution (1000 µl). The samples after stopping the reaction were used as the measurement samples. Calibration curve samples with the same composition were prepared (final concentrations of the evaluation compounds and brexpiprazole: 0.01, 0.1, and 1 µmol/L, with the proviso that for the evaluation compounds only, the 0-minute reaction samples were also used as calibration curve samples for 1 µmol/L).
For the compounds of Examples 24 to 25, 28 to 29, 32 to 36, 40 to 49, 51 to 60, 62 to 64, 66 to 77, 80 to 86, 90, 92 to 111, 113, 115, 117 to 120, 122, 124 to 130, 132 to 147, and 152 to 160 (EX 24 to EX 25, EX 28 to EX 29, EX 32 to EX 36, EX 40 to EX 49, EX 51 to EX 60, EX 62 to EX 64, EX 66 to EX 77, EX 80 to EX 86, EX 90, EX 92 to EX 111, EX 113, EX 115, EX 117 to EX 120, EX 122, EX 124 to EX 130, EX 132 to EX 147, and EX 152 to EX 160), the reaction solution without the evaluation compound (148.5 µl) was pre-incubated at 37°C for 3 minutes, and then each of the evaluation compound solutions (1.5 µl) was added and stirred; thereafter, the reaction was started at 37°C. At 0 minutes or 60 minutes after the start of the reaction, the reaction was stopped by adding and stirring a reaction stop solution (600 µl) composed of acetonitrile/isopropanol (4:1, v/v) containing internal standard substances. However, the 0-minute reaction sample (148.5 µl) was prepared by adding the evaluation compound (1.5 µl) after adding the reaction stop solution (600 µl). The samples after stopping the reaction were used as the measurement samples. […]
As to `CCOC(=O)OCOP(=O)([O-])OC[N+]1(CCCCOc2ccc3ccc(=O)[nH]c3c2)CCN(c2cccc3sccc23)CC1` [EX 129], the “Concentration of brexpiprazole formed” value was found to be 0 nM and the “Concentration of evaluation compound decreased” value was determined as 90 nM.
In the same order, the values of `CC(C)(C)C(=O)OCCCCCCOP(=O)([O-])OC[N+]1(CCCCOc2ccc3ccc(=O)[nH]c3c2)CCN(c2cccc3sccc23)CC1` [EX 102] are 0 nM and 70 nM.
In the same order, the values of `CCCCOCCOP(=O)([O-])OC[N+]1(CCCCOc2ccc3ccc(=O)[nH]c3c2)CCN(c2cccc3sccc23)CC1` [EX 96] are 0 nM and 30 nM.
For `CCCCOCCOCCOC(=O)OCOP(=O)([O-])OC[N+]1(CCCCOc2ccc3ccc(=O)[nH]c3c2)CCN(c2cccc3sccc23)CC1` [EX 135] the same measures were 0 nM and 70 nM.
For `CC(C)OC(=O)OCOP(=O)([O-])OC[N+]1(CCCCOc2ccc3ccc(=O)[nH]c3c2)CCN(c2cccc3sccc23)CC1` [EX 130], the “Concentration of brexpiprazole formed” value was found to be 0 nM and the “Concentration of evaluation compound decreased” value was -20 nM.
Consider `CCCCCCCCOP(=O)([O-])OC[N+]1(CCCCOc2ccc3ccc(=O)[nH]c3c2)CCN(c2cccc3sccc23)CC1` [EX 37], for which the “Concentration of brexpiprazole formed” value stood at 0 nM and the “Concentration of evaluation compound decreased” value came out at 60 nM.
Regarding `CC(C)OCCOCCOCCOC(=O)OCOP(=O)([O-])OC[N+]1(CCCCOc2ccc3ccc(=O)[nH]c3c2)CCN(c2cccc3sccc23)CC1` [EX 137], the “Concentration of brexpiprazole formed” value stood at 0 nM and the “Concentration of evaluation compound decreased” value is 90 nM.
On to `CC1(C)OCC(NC(=O)CCCC(=O)OCOP(=O)([O-])OC[N+]2(CCCCOc3ccc4ccc(=O)[nH]c4c3)CCN(c3cccc4sccc34)CC2)CO1` [EX 74], for which the “Concentration of brexpiprazole formed” value turned out to be 0 nM and the “Concentration of evaluation compound decreased” value is 50 nM.
In the same order, the values of `CC(C)(C)C(=O)OP(=O)([O-])OC[N+]1(CCCCOc2ccc3ccc(=O)[nH]c3c2)CCN(c2cccc3sccc23)CC1` [EX 150] are 0 nM and 110 nM.
On to `CCCCCCCC(=O)OCOP(=O)([O-])OC[N+]1(CCCCOc2ccc3ccc(=O)[nH]c3c2)CCN(c2cccc3sccc23)CC1` [EX 27], for which the “Concentration of brexpiprazole formed” value was 0 nM and the “Concentration of evaluation compound decreased” value came out at 0 nM.
Regarding `CCC(C)(C)C(=O)OCOP(=O)([O-])OC[N+]1(CCCCOc2ccc3ccc(=O)[nH]c3c2)CCN(c2cccc3sccc23)CC1` [EX 122], the “Concentration of brexpiprazole formed” value is 0 nM and the “Concentration of evaluation compound decreased” value was 50 nM.
In the same order, the values of `C[C@@H]1CN(CCOP(=O)([O-])OC[N+]2(CCCCOc3ccc4ccc(=O)[nH]c4c3)CCN(c3cccc4sccc34)CC2)C[C@H](C)O1` [EX 116] are 0 nM and 90 nM.
`O=C(OCCCN1CCOCC1)OCOP(=O)([O-])OC[N+]1(CCCCOc2ccc3ccc(=O)[nH]c3c2)CCN(c2cccc3sccc23)CC1` [EX 146]: the “Concentration of brexpiprazole formed” value was determined as 0 nM and the “Concentration of evaluation compound decreased” value was 110 nM.
In the case of `CCCCCC(=O)OC[N+]1(CCCCOc2ccc3ccc(=O)[nH]c3c2)CCN(c2cccc3sccc23)CC1.[I-]` [REX 6, 4-(Benzo[b]thiophen-4-yl)-1-((hexanoyloxy)methyl)-1-(4-((2-oxo-1,2-dihydroquinolin-7-yl)oxy)butyl)piperazin-1-ium iodide, reference compound], the “Concentration of brexpiprazole formed” value is 210 nM and the “Concentration of evaluation compound decreased” value was 220 nM.
For `COCCCCOC(=O)OCOP(=O)([O-])OC[N+]1(CCCCOc2ccc3ccc(=O)[nH]c3c2)CCN(c2cccc3sccc23)CC1` [EX 36] the same measures were 0 nM and -40 nM.
For the compound `COCCOP(=O)([O-])OC[N+]1(CCCCOc2ccc3ccc(=O)[nH]c3c2)CCN(c2cccc3sccc23)CC1` [EX 12, (4-(benzo[b]thiophen-4-yl)-1-(4-((2-oxo-1,2-dihydroquinolin-7-yl)oxy)butyl)piperazin-1-ium-1-yl)methyl (2-methoxyethyl) phosphate], the “Concentration of brexpiprazole formed” value amounted to 0 nM and the “Concentration of evaluation compound decreased” value was found to be 20 nM.
In the case of `COP(=O)([O-])OC[N+]1(CCCCOc2ccc3ccc(=O)[nH]c3c2)CCN(c2cccc3sccc23)CC1` [EX 87], the “Concentration of brexpiprazole formed” value was found to be 0 nM and the “Concentration of evaluation compound decreased” value stood at 0 nM.
With `CCOCCOC(=O)[C@@H](C)OP(=O)([O-])OC[N+]1(CCCCOc2ccc3ccc(=O)[nH]c3c2)CCN(c2cccc3sccc23)CC1` [EX 109], the “Concentration of brexpiprazole formed” value came to 0 nM and the “Concentration of evaluation compound decreased” value was -20 nM.
Consider `CCOCCOC(=O)OCOP(=O)([O-])OC[N+]1(CCCCOc2ccc3ccc(=O)[nH]c3c2)CCN(c2cccc3sccc23)CC1` [EX 132], for which the “Concentration of brexpiprazole formed” value was 0 nM and the “Concentration of evaluation compound decreased” value was 130 nM.
In the case of `CCOCCOCCOC(=O)OCOP(=O)([O-])OC[N+]1(CCCCOc2ccc3ccc(=O)[nH]c3c2)CCN(c2cccc3sccc23)CC1` [EX 134], the “Concentration of brexpiprazole formed” value was 0 nM and the “Concentration of evaluation compound decreased” value was determined as 70 nM.
In the same order, the values of `O=c1ccc2ccc(OCCCC[N+]3(COP(=O)([O-])OCC#CCCl)CCN(c4cccc5sccc45)CC3)cc2[nH]1` [EX 63] are 0 nM and 20 nM.
For `C[C@@H](OP(=O)([O-])OC[N+]1(CCCCOc2ccc3ccc(=O)[nH]c3c2)CCN(c2cccc3sccc23)CC1)C(=O)OC(C)(C)C` [EX 106] the same measures were 0 nM and 70 nM.
Turning to `CC(C)OCCOC(=O)OCOP(=O)([O-])OC[N+]1(CCCCOc2ccc3ccc(=O)[nH]c3c2)CCN(c2cccc3sccc23)CC1` [EX 133], the “Concentration of brexpiprazole formed” value was found to be 0 nM and the “Concentration of evaluation compound decreased” value was determined as 140 nM.
For `CC(C)OC(=O)[C@@H](C)OP(=O)([O-])OC[N+]1(CCCCOc2ccc3ccc(=O)[nH]c3c2)CCN(c2cccc3sccc23)CC1` [EX 105] the same measures were 0 nM and 50 nM.
`CSCCCOP(=O)([O-])OC[N+]1(CCCCOc2ccc3ccc(=O)[nH]c3c2)CCN(c2cccc3sccc23)CC1` [EX 66]: the “Concentration of brexpiprazole formed” value turned out to be 0 nM and the “Concentration of evaluation compound decreased” value came to 170 nM.
For `CC(C)(CO)COP(=O)([O-])OC[N+]1(CCCCOc2ccc3ccc(=O)[nH]c3c2)CCN(c2cccc3sccc23)CC1` [EX 48] the same measures were 0 nM and -30 nM.

Staying with this data set, now noted: Tris-hydrochloric acid buffer (pH 7.5), 37°C, 60 minutes.
On to `CCCCCC(=O)OC[N+]1(CCCCOc2ccc3ccc(=O)[nH]c3c2)CCN(c2cccc3sccc23)CC1.[I-]` [REX 6, 4-(Benzo[b]thiophen-4-yl)-1-((hexanoyloxy)methyl)-1-(4-((2-oxo-1,2-dihydroquinolin-7-yl)oxy)butyl)piperazin-1-ium iodide, reference compound], for which the “stability in the buffer / conversion to brexpiprazole (in words)” value was “clearly degraded to brexpiprazole”.
